Tests used:
[1] = molecular target: T1, TYRP1 (Homo sapiens, UniProt P17643); assay: DHICA oxidation, IQCA absorbance at […] nm; type: biochemical; conditions: 1.5 mM DHICA; pH 7.4; 37 °C; 24 h; no MBTH
T1 construct: recombinant truncated intra-melanosomal domain, C-terminal part with transmembrane helix removed, purified on His-Trap; baculovirus / T. ni larvae; ~59 kDa

[2] = molecular target: T2, TYR (Homo sapiens, UniProt P14679); assay: diphenol oxidase activity, dopachrome absorbance at […] nm, Michaelis-Menten fit; type: biochemical; conditions: free enzyme; 10 min incubation; 10 mM NaPO4 pH 7.4; 37 °C; unit printed mM^−1 (sic, mM meant)
T2 construct: recombinant truncated intra-melanosomal domain, C-terminal part with transmembrane helix removed, His-tagged; baculovirus / T. ni larvae
T2 sequence (P14679 19-469 limits assumed): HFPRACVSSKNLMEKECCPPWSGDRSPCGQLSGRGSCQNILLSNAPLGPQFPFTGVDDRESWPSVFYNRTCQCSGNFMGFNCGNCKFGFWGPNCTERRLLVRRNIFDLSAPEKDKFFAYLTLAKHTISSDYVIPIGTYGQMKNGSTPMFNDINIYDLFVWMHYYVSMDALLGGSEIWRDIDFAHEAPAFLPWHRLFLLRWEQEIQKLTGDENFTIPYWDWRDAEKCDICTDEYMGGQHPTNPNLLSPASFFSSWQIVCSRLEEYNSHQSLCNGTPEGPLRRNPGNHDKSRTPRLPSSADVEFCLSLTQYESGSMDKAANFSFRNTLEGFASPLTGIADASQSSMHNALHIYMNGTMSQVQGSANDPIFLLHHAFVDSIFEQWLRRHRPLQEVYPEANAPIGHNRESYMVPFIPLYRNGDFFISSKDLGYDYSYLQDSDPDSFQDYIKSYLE

T1 sequence (P17643 25-477 limits assumed): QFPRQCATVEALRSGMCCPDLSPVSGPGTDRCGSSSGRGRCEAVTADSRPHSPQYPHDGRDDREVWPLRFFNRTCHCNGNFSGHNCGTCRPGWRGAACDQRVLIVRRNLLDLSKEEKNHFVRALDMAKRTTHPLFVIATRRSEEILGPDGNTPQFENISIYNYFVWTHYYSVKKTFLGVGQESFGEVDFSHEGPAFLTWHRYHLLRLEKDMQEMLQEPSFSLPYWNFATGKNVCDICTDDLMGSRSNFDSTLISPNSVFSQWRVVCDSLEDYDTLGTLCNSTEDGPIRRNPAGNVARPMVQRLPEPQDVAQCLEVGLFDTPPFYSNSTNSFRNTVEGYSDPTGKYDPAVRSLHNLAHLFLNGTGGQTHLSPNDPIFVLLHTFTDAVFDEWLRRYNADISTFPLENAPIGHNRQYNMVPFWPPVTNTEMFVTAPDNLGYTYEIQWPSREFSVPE

Km (mM^-1) / Tyr [2]	Compound	DHICA oxidation, IQCA absorbance at 560 nm [1]
–	O=C(O)c1cc2cc(O)c(O)cc2[nH]1 [DHICA]	the spectrum of the reaction shows the formation of a peak corresponding to a new product
0.241 ± 0.069 mM⁻¹	N[C@@H](Cc1ccc(O)c(O)c1)C(=O)O [L-DOPA]	–

From PMC9820814, “In Vitro Reconstitution of the Melanin Pathway’s Catalytic Activities Using Tyrosinase Nanoparticles” (International Journal of Molecular Sciences, 2022)
